Results published in patent US20100178286A1, “METHODS AND COMPOSITIONS FOR REDUCING FACIAL LINES AND WRINKLES” (priority 2007, published 2010).

Tested on: epidermis / stratum corneum (skin cell renewal)
Experiment: Skin cell renewal (dansyl chloride) method
Type: in vivo, human
Settings: standard positive control; topical, pH 3.0 dissolved in water; vs untreated site
From the text: Several test methods were used to evaluate results of the compositions according to the present disclosure. One test method used was the skin cell renewal (dansyl chloride) method. The rate of cell renewal, or the transit time for an epidermal basal cell, to mature and slough off the skin surface can be assessed via a dansyl chloride staining method. As we age the rate of renewal decreases from about 15-20 days for a person to about 30 days for a person. […]
The full thickness epidermis was stained with a fluorescent dye as follows: 5% ultra pure dansyl chloride was milled into petrolatum and applied as a very thin film to standard adhesive bandages that were 2 cm by 3 cm. […] Staining was confirmed by viewing the sites with a long wave (ultra violet) UV light source to detect dansyl chloride fluorescence. […]
To assess product effects on cell renewal rates, test products were applied topically twice a day in a randomized fashion to the test sites with an untreated site serving as a control. […] Removal of the stain, reflecting loss of stratum corneum was monitored daily with the UV light source until complete removal, usually occurring in 3-4 weeks, of all stain was noted. The percentage increase in cell renewal was calculated as follows: […]

Question: With `CC(O)C(=O)O` (stereo not shown) [5% lactic acid, lactic acid] as the compound, how does the “increases in renewal rates (percentage increase in cell renewal)” value read?
Answer: Its value is 25-30%.
